The values that follow come from patent US11198705B2, “Hybrid Amphotericin B derivatives with reduced toxicity” (priority 2018, dated 2021).

Converted amounts (≈) assume the structure as drawn. Like-named read-outs stand apart in the source and are kept apart here.

Series [1] is classed as binding. From the text: (§1) However, an alternative method was developed for reproducible formation of homogenous AmB and C2′epiAmB sterol sponge aggregates in vitro. Using these preparations, a quantitative UV-Vis and Principle Component (PCA) based assay for determining the apparent KDS for the binding of AmB and C2′epiAmB to ergosterol and cholesterol (FIGS. 5A-D) was developed.
(§2) Biophysical studies support the conclusion that different capacities to bind cholesterol underlie these striking differences in toxicity for the AmBUreas versus C2′epiAmB (FIG. 15). Isothermal titration calorimetry is unable to distinguish between cholesterol binding in these two series. However, a more sensitive and quantitative UV-Vis/PCA based sponge-sterol titration experiments described above (see Example 1) was employed to quantify the binding of a representative AmB urea (AmBAU) to ergosterol and cholesterol. […] It was reasoned that the lack of cholesterol binding in C2′epiAmB to a ligand-selective allosteric effect was caused by epimerization of the C2′stereocenter (see Example 1), and thus predict that the biophysical effects associated with C2′-epimerization should be transposable to other AmB derivatives.

The subject of series [2] is primary human renal epithelial cells (hREC). From the text:
As a complementary parallel first step in the screening funnel, the MTC's of all new derivatives will be evaluated against hREC using a WST-8 cell proliferation assay kit as previously described above. The MTC will be determined by calculating the mean of at least two biological replicates.

In the next series the test system is C. albicans. Kind of series: MIC against C. albicans with and without pre-complexation with ergosterol. The series is classed as cell-based. The following applies: sponge pre-complexed with ergosterol. From the text:
Anderson, T. M. et al., Nat Chem Biol 2014, 10 (5), 400-6. […] Davis, S. A., et al., Nat Chem Biol 2015, 11 (7), 481-7. To test whether C2′epiAmB primarily kills cells via the same sterol sponge mechanism, the C2′epiAmB sponge was similarly pre-complexed with ergosterol (FIG. 9). […] Thus, C2′epiAmB similarly kills yeast primarily via sterol binding, and, by extension, the new compounds targeted in this application are expected to have a similar barrier to fungal resistance that has been observed for the past 50+ years with AmB.

Series [3] has as its system panel of clinical isolates. Nature of the series: In vitro antifungal activity, panel of clinical isolates (FIG. 11B). The series is classed as cell-based. The following applies: read-out: Mean MIC. From the text: Burke, Andes, and Lindquist reported in 2015 a series of AmB derivatives in which the C16 acid is replaced with a urea motif via a scalable 3-step synthesis from AmB (FIG. 11A). Davis, S. A., et al., Nat Chem Biol 2015, 11 (7), 481-7. AmBUreas were studied at REVOLUTION Medicines, a biotech company for which Burke is a Founder and Consultant and Steinbach served on the Clinical Advisory Board.
(§3) Both AmBAU and AmBTACBU was further tested and compared to AmB against four strains of clinically relevant Candida species and four challenging strains of A. fumigatus (FIG. 11D).

The test system of series [4] is four strains of clinically relevant Candida species and four challenging strains of A. fumigatus. Kind of series: In vitro antifungal activity, four Candida strains and four A. fumigatus strains (FIG. 11D). Type of series: cell-based. The following applies: Aspergillus fumigatus, read-out: Mean MIC.
Excerpt: as §3

Another series relates to invasive candidiasis. Kind of series: Murine model of invasive candidiasis, intraperitoneal AmBUreas (FIG. 12). The series is classed as in vivo, mice. The protocol:
(§4) To enable a head-to-head comparison with the AmB urea derivatives, AmB was delivered as a non-deoxycholate complex. […] These AmBUreas were also tested via intravenous administration in a similar model at EvoTec (Oxfordshire, UK), and their activities were compared directly with IV AmB-deoxycholate (Fungizone®) and liposomal AmB (AmBisome®) (FIG. 13).

Series [5] in a line: UV-Vis/PCA sterol sponge titration, cholesterol. The series is classed as binding.
Excerpt: as §1, §2

In another series the test system is human red blood cells. The series is classed as cell-based.
The nature of series [6]: IV toxicity in mice (mortality). Type of series: in vivo. The following applies: IV, mice.
Another series concerns candidiasis. Kind of series: Candidiasis mouse model, intravenous administration (EvoTec, FIG. 13). Type of series: in vivo, mice. The protocol: as §4
Series [7] deals with wide range of clinically relevant pathogens. Nature of the series: In vitro antifungal activity, wide range of clinically relevant pathogens (FIG. 11C). The series is classed as cell-based. The following applies: across a wide range of pathogens. From the text: (§5) Steinbach and Burke recently collaborated to further compare the activity of a series of AmBUreas (AmBAU, AmBMU, and AmBCU) with AmBisome®, C2′epiAmB, caspofungin, and voriconazole against a wide range of clinically relevant pathogens, including AmB-resistant Scedosporium strains (FIG. 11C).

The test system of the next series is Scedosporium prolificans. Nature of the series: In vitro antifungal activity against Scedosporium prolificans. Type of series: cell-based. The following applies: recalcitrant strain.
Excerpt: as §5

The nature of series [8]: PK/PD properties in mice, rats and dogs (FIG. 14). Type of series: in vivo. The following applies: rats, dogs.
A short description of series [9]: IV toxicity in rats (BUN, ALT/AST, mortality). The following applies: 6 mg/kg.
The nature of series [10]: Isothermal titration calorimetry (ITC) sterol binding, ergosterol. The following applies: within detection limits of ITC. From the text:
(§6) This key discovery opened a path to the rational development of a non-toxic AmB variant. To probe its predicted role in sterol binding, the hydroxyl group was synthetically deleted at the C2′ position on the mycosamine appendage. […] Consistent with the sterol sponge model, this derivative retained good activity against yeast but, most importantly, was nontoxic to human red blood cells and primary (hREC) (FIG. 2B).
(§7) A practical 11-step synthesis of C2′epiAmB using a frontier site-selective acylation method was developed (FIG. 4). Wilcock, B. C. et al., Nat Chem 2012, 4 (12), 996-1003; Uno, B. E. A synthesis enabled understanding of Amphotericin B leading to derivatives with improved therapeutic indices. University of Illinois at Urbana-Champaign, 2014. The sterol binding and cell killing activities was then determined.

Series [11] can be described thus: Isothermal titration calorimetry (ITC) sterol binding, cholesterol. The following applies: within detection limits of ITC.
Excerpt: as §6, §7

A further series concerns yeast. Nature of the series: Activity against yeast / cell killing (FIG. 2). The series is classed as cell-based.
Excerpt: as §6, §7

Series [12] has as its system A. fumigatus 91, A. fumigatus 1100. Nature of the series: MIC against A. fumigatus 91 and A. fumigatus 1100. The series is classed as cell-based. From the text: The results with C2′epiAmBAU strongly support the prediction that C16 modifications will show improved potency compared to C2′epiAmB. […] Thus, it is expected that hybridizations of C2′epiAmB with other urea side chains will yield similar increases in potency without any mammalian toxicity. If this proves not to be the case, other classes of C16 modifications that also increase potency will be pursed. […] Alternative modifications may be pursed at the mycosamine appendage that the modelling predicts should similarly eliminate the water-bridged C2′OH to C13OH hydrogen bond, e.g., C2′deoxygenation, C2′-halodeoxygenation, or C2′-methyldeoxygenation, and thus eliminate cholesterol binding (see FIGS. 3A and 3B). This study anticipates high doses of non-toxic C2′epiAmBUreas will yield a significant reduction in fungal burden and therefore an increase in survival in QD dosing efficacy studies relative to AmB-deoxycholate (Fungizone®), AmBisome®, C2′epiAmB, voriconazole, and caspofungin.

`C[C@@H]1[C@H](O)[C@@H](C)/C=C/C=C/C=C/C=C/C=C/C=C/C=C/[C@H](O[C@@H]2O[C@H](C)[C@@H](O)[C@H](N)[C@@H]2O)C[C@@H]2O[C@](O)(C[C@@H](O)C[C@@H](O)[C@H](O)CC[C@@H](O)C[C@@H](O)CC(=O)O[C@H]1C)C[C@H](O)[C@H]2C(=O)O` [AmB, Amphotericin B] registered a Kd in [1] of 120 nM. Moreover, the “minimum toxic concentration (MTC) against primary hRECs” value in [2] (human) turned out to be 2.4 µM. Besides, the “minimum toxic concentration (MTC) in hREC, preliminary analysis” value in [2] (human) is 2 to 4 µM. In addition, in the series on C. albicans, the “change in potency upon ergosterol pre-complexation” value is listed as “same reduction in potency”. Also, the MIC in [3] was 1.23 µM (≈ 1.14 µg/mL); in series [4], 1.33 µM (≈ 1.23 µg/mL). In addition, the dose-response result with invasive candidiasis (AmB delivered as a non-deoxycholate complex) is on record as “atypical lack of dose-response”.
For the compound `C[C@@H]1[C@H](O)[C@@H](C)/C=C/C=C/C=C/C=C/C=C/C=C/C=C/C(OC2O[C@H](C)[C@@H](O)[C@H](N)[C@@H]2O)C[C@@H]2O[C@](O)(C[C@@H](O)C[C@@H](O)[C@H](O)CC[C@@H](O)C[C@@H](O)CC(=O)O[C@H]1C)C[C@H](O)[C@H]2NC(=O)NCCN` (stereo partly drawn) [AmBAU], the binding to ergosterol result in series [1] (UV-Vis/PCA sponge-sterol titration) is listed as “confirmed to bind”. In series [5], the binding to cholesterol entry is reported as “confirmed to bind”. Moreover, the “minimum toxic concentration (MTC) against primary hRECs” value in series [2] turned out to be 11.3 µM. Moreover, in the series on human red blood cells (highest concentrations tested), the “concentration failing to fully lyse red blood cells” value was more than 500 µM. Besides, the “dose at which death was observed” value in series [6] is 32 mg/kg. Besides, the kidney fungal burden result is “sterilization in multiple mice” in the series with candidiasis (1 mg/kg, within the limits of assay detection) and “complete sterilization” with candidiasis (16 mg/kg). For the same compound, the MIC in series [4] (FIG. 11D, four Candida and four A. fumigatus strains) was 0.5 µM (≈ 0.491 µg/mL). Besides, the antifungal potency entry in series [7] is recorded as “excellent potency”. Besides, the “activity against Scedosporium prolificans” value with Scedosporium prolificans is recorded as “active”. Also, the PK/PD properties result in [8] is reported as “favorable PK/PD properties”. Further, the efficacy entry in the series on invasive candidiasis (administered intraperitoneally) is given as “exceptionally effective”. In series [9], the toxicity in rats entry is on record as “significant toxicity”.
For the compound `CNC(=O)N[C@H]1[C@@H]2CC(OC3O[C@H](C)[C@@H](O)[C@H](N)[C@@H]3O)/C=C/C=C/C=C/C=C/C=C/C=C/C=C/[C@H](C)[C@@H](O)[C@@H](C)[C@H](C)OC(=O)C[C@H](O)C[C@H](O)CC[C@@H](O)[C@H](O)C[C@H](O)C[C@](O)(C[C@@H]1O)O2` (stereo partly drawn) [AmBMU], in series [5], the binding to cholesterol entry is recorded as “retains the capacity to bind cholesterol”. Also, the “minimum toxic concentration (MTC) against primary hRECs” value in [2] (human) was 44.4 µM. For the same compound, in [9], the toxicity in rats entry is “significant toxicity”.
In the case of `CC1C=CC=CC=CC=CC=CC=CC=CC(OC2CC(N)C(O)C(C)O2)CC2OC(O)(CC(O)CC(O)C(O)CCC(O)CC(O)CC(=O)OC(C)C(C)C1O)CC(O)C2C(=O)O` (stereo not drawn) [C2′deOAmB, reference compound], the “binding of ergosterol by ITC” value in series [10] is given as “bind ergosterol”. In addition, the “binding of cholesterol by ITC” value in [11] is “not cholesterol”. The “toxicity to primary hREC” value in [2] was “nontoxic”. In the series on human red blood cells, the “toxicity to human red blood cells” value is “nontoxic”. The activity against yeast entry in the series with yeast was “good activity”.
Take `COC(=O)C1C(O)CC2(O)CC(O)CC(O)C(O)CCC(O)CC(O)CC(=O)OC(C)C(C)C(O)C(C)C=CC=CC=CC=CC=CC=CC=CC(OC3OC(C)C(O)C(N)C3O)CC1O2` (stereo not drawn) [C2′epiAmBME, C2′epiAmB C16 methyl ester]: the MIC in series [12] (A. fumigatus 91) and in series [12] (A. fumigatus 1100) was 4 µM (≈ 3.75 µg/mL) in each case.
